Measured values: patent US9547001B2, “Antibody specific for trans-resveratrol and use thereof” (IP Science Limited, priority 2011, dated 2017)
Values joined by “and” are separate entries in the source; they are usually repeats but may differ in a detail not shown here. Equal entries are not always repeated.

Assays:
Type in all cases: in vivo
[1] = HPLC-MS measurement of tRV in human serum after 1 mg tRV in 200 ml red wine (wine study); conditions: sum of 1 h + 2 h + 4 h + 6 h + 8 h, one value per volunteer
Method: The same volunteers also participated in a wine study. The same “wash out” period was used, and the same timing of the experiment was applied. Instead of taking a capsule of tRV each of the volunteers consumed 200 ml of red wine, which was selected on a basis that it would contain 1 mg of tRV in this volume. The rest of the Protocol employed was the same as above.
After taking blood, serum was separated, aliquoted and stored at −80° C. for further testing.

[2] = anti-tRV ELISA measurement of tRV in human serum after 1 mg tRV in 200 ml red wine (wine study); conditions: sum of 1 h + 2 h + 4 h + 6 h + 8 h, one value per volunteer
Method: (§1) 2 ml of ethyl acetate was added to 0.5 ml of serum sample, then mixed on a vortex for 3 minutes, followed by centrifugation for 2 minutes at 500 r/min. The upper layer of ethyl acetate was transferred into a new tube. To the remaining lower water fraction a second portion of 2 ml ethyl acetate was added and the extraction procedure was repeated. The new ethyl acetate fraction was added to the old one, giving a total volume of 4 ml, which was then dried by air flow at 60° C., using a Reacti-Therm™III, Thermo scientific, USA.[…]. 40 μl of ethanol was then added and mixed on vortex, then 160 μl of PBS with 0.5% BSA was added and mixed again. This final solution was used for the analysis described below.
RV-BSA was pre-absorbed on microplate wells in 0.1M carbonate buffer, pH=9.5 (at a concentration of 5 μg/ml) overnight at 4° C. […]
(§2) The plate was washed out four times with PBST, and then a chromogeninc substrate was added, tetramethylbenzidine+H2O2. After stopping the reaction with 1M H2SO4, optic density was read at λ450 nm, Multiscan EX (<<Thermo>>, USA).
Inhibition by free tRV of the binding of serum antibodies with immobolised RV-BSA (Kin) was calculated according to the following formula: Kin=100−(A450D/A450C−)×100, where: • A450D is the optic density in samples with free tRV (testing serum or samples from the calibrating curve), • A450 C is the an optic density without free tRV. […]

[3] = anti-tRV ELISA measurement of tRV in human serum after 100 mg tRV capsule (nutraceutical study)
Method: as §1
RV-BSA was pre-absorbed on microplate wells in 0.1M carbonate buffer, pH=9.5 (at a concentration of 5 μg/ml) overnight at 4° C. After washing four times the PBST plate was blocked with PBS contacting 1% of Top Block (<<Yuro>>, Switzerland).
For the calibrating curve different concentrations of tRV were added into the wells. The stock solution used was 1 mg/ml of tRV diluted in PBST with 0.5% BSA and 20% ethanol. 50 μl of each serum extract to be tested were added to parallel wells. After which 50 μl of the conjugate of HRP with monoclonal anti-tRV antibodies was added to all the wells. The content of the wells was mixed using a shaker for 1 minute and then the plate was then incubated for 1 hour at +37° C.
as §2
Inhibition by free tRV of the binding of serum antibodies with immobolised RV-BSA (Kin) was calculated according to the following formula: Kin=100−(A450D/A450C−)×100, where: • A450D is the optic density in samples with free tRV (testing serum or samples from the calibrating curve), • A450 C is the an optic density without free tRV.
(§3) The group of 5 volunteers comprised of 2 female and 3 male clinically healthy Caucasian persons, age between 23 and 35 years.
(§4) They were asked, before commencing this experiment, to go for 3-4 days “wash-out”, when consumption of any grape, wine, peanut, chocolate and other products which might contain them.
(§5) In the morning of the experiment, one hour after light breakfast, volunteers were given 1 gelatine capsule containing 100 mg of tRV.
(§6) Blood samples were taken from their median cubital or cephalic veins at the baseline point. Then, after administration of tRV, their blood was taken again at the following time points: 30 minutes, 1 hour, 2, 3, 4, 6 and 8 hours.
(§7) After taking blood its serum was separated, aliquoted and stored at −80° C. for further testing.

[4] = HPLC-MS measurement of tRV in human serum after 100 mg tRV capsule (nutraceutical study)
Method: as §3, §4, §5, §6, §7

[5] = 1 h after 100 mg tRV, volunteers 1 and 2
[6] = 2 h after 100 mg tRV, volunteers 1 and 2
[7] = human serum, 100 mg tRV dietary supplement, sum of 30 min + 1 h + 2 h + 3 h + 4 h + 6 h + 8 h, one value per volunteer
[8] = human, serum, oral, 100 mg, 1 h after 100 mg tRV, volunteers 1 and 2
[9] = human, serum, oral, 100 mg, 2 h after 100 mg tRV, volunteers 1 and 2

Concentration of tRV in serum as a sum of 5 separate measurements, HPLC-MS [1]: 6 ng/ml and 572 ng/ml and 0 ng/ml (3×)
Concentration of tRV in serum, ELISA ([3]; 30 min after 100 mg tRV, volunteers 1 and 2): 90 ng/mL
Concentration of tRV in serum, ELISA [3, 5]: 490 ng/mL
Concentration of tRV in serum, ELISA [3, 6]: 255 ng/mL
Concentration of tRV in serum, ELISA ([3]; 3 h after 100 mg tRV, volunteers 1 and 2): 10 ng/mL
Concentration of tRV in serum, ELISA ([3]; 4 h after 100 mg tRV, volunteers 1 and 2): 195 ng/mL
Concentration of tRV in serum, ELISA ([3]; 6 h after 100 mg tRV, volunteers 1 and 2): 620 ng/mL
concentration at 30 min ([3]; human, serum, oral, 100 mg, 30 min after 100 mg tRV, volunteers 1 and 2): 140 ng/mL
concentration at 1 h [3, 8]: 650 ng/mL
concentration at 2 h [3, 9]: 210 ng/mL
concentration at 3 h ([3]; human, serum, oral, 100 mg, 3 h after 100 mg tRV, volunteers 1 and 2): 20 ng/mL
concentration at 4 h ([3]; human, serum, oral, 100 mg, 4 h after 100 mg tRV, volunteers 1 and 2): 135 ng/mL
concentration at 6 h ([3]; human, serum, oral, 100 mg, 6 h after 100 mg tRV, volunteers 1 and 2): 420 ng/mL
Concentration of tRV in serum, HPLC-MS [4, 5]: 97 ng/mL
Concentration of tRV in serum, HPLC-MS [4, 6]: 21 ng/mL
concentration at 1 h [4, 8]: 65 ng/mL
concentration at 2 h [4, 9]: 12 ng/mL
SMILES: Oc1ccc(/C=C/c2cc(O)cc(O)c2)cc1 [tRV, trans-Resveratrol]
Concentration of tRV in serum as a sum of 5 separate measurements, ELISA [2]: 310 ng/mL and 850 ng/mL and 120 ng/mL and 460 ng/mL and 380 ng/mL
Concentration of tRV in serum as a sum of 7 separate measurements, ELISA [3, 7]: 1600 ng/mL and 1900 ng/mL and 1070 ng/mL and 795 ng/mL and 1412 ng/mL
Concentration of tRV in serum as a sum of 7 separate measurements, HPLC-MS [4, 7]: 98 ng/mL and 139 ng/mL and 79 ng/mL and 37 ng/mL and 107 ng/mL
